For orientation: IC50 means the point on the concentration scale where inhibition reaches its midpoint. Read a low IC50 as greater potency in that assay.

Assay [1] addresses T1, Amine oxidase [flavin-containing] A (Rattus norvegicus, UniProt P21396).
T1 sequence (P21396 whole entry): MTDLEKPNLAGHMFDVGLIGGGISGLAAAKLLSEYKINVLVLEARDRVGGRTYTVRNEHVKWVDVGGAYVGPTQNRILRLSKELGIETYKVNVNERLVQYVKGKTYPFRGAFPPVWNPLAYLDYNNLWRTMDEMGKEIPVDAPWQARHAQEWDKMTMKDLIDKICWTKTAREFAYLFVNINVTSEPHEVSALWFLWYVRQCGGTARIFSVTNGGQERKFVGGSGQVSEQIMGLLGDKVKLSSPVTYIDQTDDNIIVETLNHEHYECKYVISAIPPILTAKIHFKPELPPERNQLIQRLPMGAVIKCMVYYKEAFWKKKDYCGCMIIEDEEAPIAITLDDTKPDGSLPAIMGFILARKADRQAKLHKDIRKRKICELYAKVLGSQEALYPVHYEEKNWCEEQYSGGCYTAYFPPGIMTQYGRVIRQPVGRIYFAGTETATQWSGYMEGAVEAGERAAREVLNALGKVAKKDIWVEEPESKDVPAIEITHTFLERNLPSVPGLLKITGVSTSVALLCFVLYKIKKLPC
Kind of assay: Inhibition of rat brain synaptosome MAO-A.

For assay [2], the target named is T2, Amine oxidase [flavin-containing] B (Rattus norvegicus, UniProt P19643).
T2 sequence (P19643 whole entry): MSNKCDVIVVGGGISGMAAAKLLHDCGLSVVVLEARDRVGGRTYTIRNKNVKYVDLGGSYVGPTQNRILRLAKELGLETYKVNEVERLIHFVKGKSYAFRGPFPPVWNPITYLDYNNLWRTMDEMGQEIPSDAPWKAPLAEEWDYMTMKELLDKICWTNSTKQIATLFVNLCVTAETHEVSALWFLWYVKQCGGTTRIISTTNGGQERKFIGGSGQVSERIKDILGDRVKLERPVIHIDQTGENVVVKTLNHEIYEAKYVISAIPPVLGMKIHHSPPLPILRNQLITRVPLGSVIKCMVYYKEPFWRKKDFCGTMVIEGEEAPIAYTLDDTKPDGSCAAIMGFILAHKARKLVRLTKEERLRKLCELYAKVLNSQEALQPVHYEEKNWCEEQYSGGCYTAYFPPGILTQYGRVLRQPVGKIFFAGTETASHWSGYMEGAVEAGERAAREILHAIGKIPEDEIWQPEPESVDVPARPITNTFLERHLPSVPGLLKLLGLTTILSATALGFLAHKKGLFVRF
In words: Inhibition of rat brain synaptosome MAO-B.

With `Cc1c(C(=O)CC(C#N)C#N)c(=O)n(-c2ccccc2)n1C`, the figures for the IC50 in assay [1] and in assay [2] were 2.3 nM and 13 nM, respectively.

These data come from BindingDB's records for PubMed 31761383 (n/a, 2020).
